According to publication PMC6899459 (Chemmedchem, 2019):
pEC50: −log10 of the molar value. Square brackets hold non-standard residues; d marks the D form. Peptide text beside a SMILES is read from it. Trp(3S-Ph) = N[C@H](C(=O)O)[C@@H](c1ccccc1)c1c[nH]c2ccccc12; Trp(βR-Ph) = N[C@H](C(=O)O)[C@H](c1ccccc1)c1c[nH]c2ccccc12; d2Nal = N[C@H](Cc1ccc2ccccc2c1)C(=O)O; dBta = N[C@H](Cc1csc2ccccc12)C(=O)O; Inp = O=C(O)C1CCNCC1

Biological target: ghrelin receptor (Homo sapiens, UniProt Q92847)
Assay: IP-One assay
Format: cell-based
Conditions: for potency loss relative to ghrelin: IP-One assay, COS7 cells with ghrelin receptor; for pEC50 / E max [Δ%]: SEM; for E max [Δ%]: difference between constitutive activity and maximal effect, mean±SEM of >=2 independent experiments
[1] = normalized to ghrelin (5) efficacy (ghrelin analogues and multiple modified agonists)
[2] = normalized to KbFwLL-NH2 (15) (inverse agonists and 13)

Sequence of ghrelin receptor (Q92847 whole entry): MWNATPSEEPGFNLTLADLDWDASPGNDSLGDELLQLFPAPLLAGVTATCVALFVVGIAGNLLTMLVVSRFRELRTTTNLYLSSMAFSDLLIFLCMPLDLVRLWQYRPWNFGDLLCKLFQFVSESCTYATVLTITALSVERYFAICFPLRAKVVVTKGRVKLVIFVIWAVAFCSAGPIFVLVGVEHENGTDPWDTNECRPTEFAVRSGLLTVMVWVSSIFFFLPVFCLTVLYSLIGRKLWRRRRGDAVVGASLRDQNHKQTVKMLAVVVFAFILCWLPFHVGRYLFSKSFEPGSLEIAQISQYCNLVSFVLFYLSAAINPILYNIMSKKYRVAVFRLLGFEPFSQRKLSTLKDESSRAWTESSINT

Which results are given for `CCCCCCCC(=O)OC[C@H](NC(=O)[C@H](CO)NC(=O)CN)C(=O)N[C@H](C(=O)N[C@@H](CC(C)C)C(=O)N[C@@H](CO)C(=O)N1CCC[C@H]1C(=O)N[C@@H](CCC(=O)O)C(=O)N[C@@H](Cc1c[nH]cn1)C(=O)N[C@@H](CCC(N)=O)C(=O)N[C@@H](CCCNC(=N)N)C(=O)N[C@H](C(=O)N[C@@H](CCC(N)=O)C(=O)N[C@@H](CCC(N)=O)C(=O)N[C@@H](CCCNC(=N)N)C(=O)N[C@@H](CCCCN)C(=O)N[C@@H](CCC(=O)O)C(=O)N[C@@H](CO)C(=O)N[C@@H](CCCCN)C(=O)N[C@@H](CCCCN)C(=O)N1CCC[C@H]1C(=O)N1CCC[C@H]1C(=O)N[C@@H](C)C(=O)N[C@@H](CCCCN)C(=O)N[C@@H](CC(C)C)C(=O)N[C@@H](CCC(N)=O)C(=O)N1CCC[C@H]1C(=O)N[C@@H](CCCNC(=N)N)C(=O)O)C(C)C)[C@H](c1ccccc1)c1c[nH]c2ccccc12` [Peptide 6, Wrf^4‐ghrelin]?
potency loss relative to ghrelin: about 12 fold; pEC50: 7.49; E max [Δ%] [1]: 98±2 Δ%

How did the “potency loss relative to ghrelin” value turn out when `CCCCCCCC(=O)OC[C@H](NC(=O)[C@H](CO)NC(=O)CN)C(=O)N[C@H](C(=O)N[C@@H](CC(C)C)C(=O)N[C@@H](CO)C(=O)N1CCC[C@H]1C(=O)N[C@@H](CCC(=O)O)C(=O)N[C@@H](Cc1c[nH]cn1)C(=O)N[C@@H](CCC(N)=O)C(=O)N[C@@H](CCCNC(=N)N)C(=O)N[C@H](C(=O)N[C@@H](CCC(N)=O)C(=O)N[C@@H](CCC(N)=O)C(=O)N[C@@H](CCCNC(=N)N)C(=O)N[C@@H](CCCCN)C(=O)N[C@@H](CCC(=O)O)C(=O)N[C@@H](CO)C(=O)N[C@@H](CCCCN)C(=O)N[C@@H](CCCCN)C(=O)N1CCC[C@H]1C(=O)N1CCC[C@H]1C(=O)N[C@@H](C)C(=O)N[C@@H](CCCCN)C(=O)N[C@@H](CC(C)C)C(=O)N[C@@H](CCC(N)=O)C(=O)N1CCC[C@H]1C(=O)N[C@@H](CCCNC(=N)N)C(=O)O)C(C)C)[C@@H](c1ccccc1)c1c[nH]c2ccccc12` [Peptide 7, Wsf^4‐ghrelin] was run?
The value was “about 12 fold”.

And the pEC50?
The pEC50 was 7.47.

And the “E max [Δ%]” value [1]?
Its value is 96±2 Δ%.

Which results are given for `CC(C)C[C@H](NC(=O)[C@H](CC(C)C)NC(=O)[C@@H](Cc1c[nH]c2ccccc12)NC(=O)[C@H](Cc1ccccc1)NC(=O)[C@@H](Cc1c[nH]c2ccccc12)NC(=O)[C@@H](N)CCCCN)C(N)=O` [Peptide 8, KwFwLL‐NH2, reference compound]?
pEC50: 6.74; E max [Δ%] [2]: 66±3 Δ%

How did the “E max [Δ%]” value [2] turn out when `CC(C)C[C@H](NC(=O)[C@H](CC(C)C)NC(=O)[C@@H](Cc1c[nH]c2ccccc12)NC(=O)[C@H](Cc1ccccc1)NC(=O)[C@@H](NC(=O)[C@@H](N)CCCCN)[C@H](c1ccccc1)c1c[nH]c2ccccc12)C(N)=O` [Peptide 9, K‐Wrf‐FwLL‐NH2] was run?
Its value is 72±2 Δ%.

What does the source list for `CC(C)C[C@H](NC(=O)[C@H](CC(C)C)NC(=O)[C@@H](Cc1c[nH]c2ccccc12)NC(=O)[C@@H](NC(=O)[C@@H](Cc1c[nH]c2ccccc12)NC(=O)[C@@H](N)CCCCN)[C@H](c1ccccc1)c1c[nH]c2ccccc12)C(N)=O` [Peptide 11, Kw‐Wrf‐wLL‐NH2] (H-K[dW][Trp(βR-Ph)][dW]LL-NH2; N-terminus assumed)?
pEC50: 6.83; E max [Δ%] [2]: 55±4 Δ%

With `CC(C)C[C@H](NC(=O)[C@H](CC(C)C)NC(=O)[C@@H](Cc1c[nH]c2ccccc12)NC(=O)[C@@H](NC(=O)[C@@H](Cc1c[nH]c2ccccc12)NC(=O)[C@@H](N)CCCCN)[C@@H](c1ccccc1)c1c[nH]c2ccccc12)C(N)=O` [Peptide 12, Kw‐Wsf‐wLL‐NH2] (H-K[dW][Trp(3S-Ph)][dW]LL-NH2; N-terminus assumed) as the compound, how does the pEC50 read?
The pEC50 was 6.55.

What about the “E max [Δ%]” value [2] of the same compound?
The value was 77±4 Δ%.

`CC(C)C[C@H](NC(=O)[C@H](CC(C)C)NC(=O)[C@@H](NC(=O)[C@H](Cc1ccccc1)NC(=O)[C@@H](Cc1c[nH]c2ccccc12)NC(=O)[C@@H](N)CCCCN)[C@H](c1ccccc1)c1c[nH]c2ccccc12)C(N)=O` [Peptide 13, KwF‐Wrf‐LL‐NH2] was tested. Which pEC50 did it give?
Its pEC50 is 6.04.

What about the “E max [Δ%]” value [2] of the same compound?
The value was 39±3 Δ%.

`CC(C)C[C@H](NC(=O)[C@H](CC(C)C)NC(=O)[C@@H](Cc1c[nH]c2ccccc12)NC(=O)[C@@H](NC(=O)[C@@H](Cc1csc2ccccc12)NC(=O)[C@@H](N)CCCCN)[C@H](c1ccccc1)c1c[nH]c2ccccc12)C(N)=O` [Peptide 16, Kb‐Wrf‐wLL‐NH2] (H-K[dBta][Trp(βR-Ph)][dW]LL-NH2; N-terminus assumed) was tested. Which pEC50 did it give?
Its pEC50 is 6.26.

And the “E max [Δ%]” value [2]?
The value was 56±3 Δ%.

With `C[C@H](N)C(=O)N[C@H](Cc1c[nH]c2ccccc12)C(=O)N[C@@H](Cc1ccccc1)C(=O)N[C@H](Cc1ccc2ccccc2c1)C(=O)N1CCC(C(N)=O)CC1` [Peptide 18, AwFn‐Isn‐NH2, reference compound] (H-A[dW]F[d2Nal][Inp]-NH2; N-terminus assumed) as the compound, how does the pEC50 read?
The pEC50 was 7.78.

What about the “E max [Δ%]” value [1] of the same compound?
The value was 110±6 Δ%.

`C[C@H](N)C(=O)N[C@H](Cc1c[nH]c2ccccc12)C(=O)N[C@@H](Cc1ccccc1)C(=O)N[C@H](C(=O)N1CCC(C(N)=O)CC1)[C@H](c1ccccc1)c1c[nH]c2ccccc12` [Peptide 20, AwF‐Wrf‐Isn‐NH2] (H-A[dW]F[Trp(βR-Ph)][Inp]-NH2; N-terminus assumed) was tested. Which pEC50 did it give?
The pEC50 was 7.56.

And the “E max [Δ%]” value [1]?
The value was 105±3 Δ%.

How did the pEC50 turn out when `C[C@H](N)C(=O)N[C@H](Cc1c[nH]c2ccccc12)C(=O)N[C@@H](Cc1ccccc1)C(=O)N[C@H](C(=O)N1CCC(C(N)=O)CC1)[C@@H](c1ccccc1)c1c[nH]c2ccccc12` [Peptide 21, AwF‐Wsf‐Isn‐NH2] (H-A[dW]F[Trp(3S-Ph)][Inp]-NH2; N-terminus assumed) was run?
The pEC50 was 7.08.

What about the “E max [Δ%]” value [1] of the same compound?
The value was 95±2 Δ%.
